# Paper PMC10526264, “VprBP/DCAF1 Triggers Melanomagenic Gene Silencing through Histone H2A Phosphorylation” (Biomedicines, 2023)
# Molecular target: VprBP/DCAF1 (Vpr binding protein) (Homo sapiens, UniProt Q9Y4B6)
# Assay: Western blot of H2AT120p (VprBP substrate mark) in G361 and MeWo melanoma cells treated […] h with […] B32B3
# Assay type: cell-based
# Chain of VprBP/DCAF1 (Vpr binding protein) (Q9Y4B6 whole entry): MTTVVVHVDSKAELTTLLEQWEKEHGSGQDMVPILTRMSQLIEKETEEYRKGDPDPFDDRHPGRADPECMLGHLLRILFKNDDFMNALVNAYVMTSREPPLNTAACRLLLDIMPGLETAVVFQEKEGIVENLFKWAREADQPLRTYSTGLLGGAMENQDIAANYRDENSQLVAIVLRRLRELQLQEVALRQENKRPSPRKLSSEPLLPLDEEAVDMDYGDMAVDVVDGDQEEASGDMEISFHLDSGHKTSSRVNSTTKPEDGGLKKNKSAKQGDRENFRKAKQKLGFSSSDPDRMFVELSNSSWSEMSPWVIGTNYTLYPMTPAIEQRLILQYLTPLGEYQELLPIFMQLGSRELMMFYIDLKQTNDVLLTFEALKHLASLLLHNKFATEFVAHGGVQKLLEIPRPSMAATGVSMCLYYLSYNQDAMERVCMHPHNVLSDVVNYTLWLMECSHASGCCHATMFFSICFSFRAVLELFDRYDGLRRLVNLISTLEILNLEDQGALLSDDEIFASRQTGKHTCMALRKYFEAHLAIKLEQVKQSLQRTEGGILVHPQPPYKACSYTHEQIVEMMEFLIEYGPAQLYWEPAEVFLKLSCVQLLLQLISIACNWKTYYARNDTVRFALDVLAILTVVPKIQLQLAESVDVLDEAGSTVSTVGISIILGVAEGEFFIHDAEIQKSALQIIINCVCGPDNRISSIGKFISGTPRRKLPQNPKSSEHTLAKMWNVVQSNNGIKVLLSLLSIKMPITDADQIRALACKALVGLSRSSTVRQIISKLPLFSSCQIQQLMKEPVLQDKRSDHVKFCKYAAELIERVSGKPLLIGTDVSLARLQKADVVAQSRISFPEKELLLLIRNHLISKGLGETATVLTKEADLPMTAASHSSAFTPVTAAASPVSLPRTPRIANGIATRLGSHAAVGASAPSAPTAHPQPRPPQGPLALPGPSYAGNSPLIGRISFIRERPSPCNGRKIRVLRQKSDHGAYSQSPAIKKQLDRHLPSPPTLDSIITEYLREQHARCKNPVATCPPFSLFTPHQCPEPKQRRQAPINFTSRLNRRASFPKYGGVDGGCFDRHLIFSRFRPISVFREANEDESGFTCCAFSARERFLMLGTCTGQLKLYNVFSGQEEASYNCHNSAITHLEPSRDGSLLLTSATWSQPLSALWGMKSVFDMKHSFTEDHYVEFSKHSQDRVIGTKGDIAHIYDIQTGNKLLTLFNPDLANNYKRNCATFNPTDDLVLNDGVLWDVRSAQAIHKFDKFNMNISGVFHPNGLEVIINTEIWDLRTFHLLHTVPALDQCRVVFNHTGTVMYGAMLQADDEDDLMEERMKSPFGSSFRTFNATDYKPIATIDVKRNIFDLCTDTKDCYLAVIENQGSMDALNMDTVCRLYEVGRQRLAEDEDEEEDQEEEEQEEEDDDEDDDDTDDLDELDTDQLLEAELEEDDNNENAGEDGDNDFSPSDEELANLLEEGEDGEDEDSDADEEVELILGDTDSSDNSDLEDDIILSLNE
structure (smiles),measurement,value
C(=N\Nc1ncnc2sc3c(c12)CCCC3)/c1c[nH]c2ccccc12 [B32B3],IC50,100 nM
